pIC50: −log10 of the molar value. Where a SMILES comes first, the peptide text is derived from it. [ ]: non-standard residue; d: D form. Phe(4-NH2) = Nc1ccc(C[C@H](N)C(=O)O)cc1; Tic = O=C(O)[C@@H]1Cc2ccccc2CN1
Legend:
Mu-type opioid receptor = Mu-type opioid receptor (Rattus norvegicus, UniProt P33535); experiment: Binding assay evaluated using DAMGO radioligand in CHO cells transfected with rat Opioid receptor mu 1; format: cell-based
[1] = biological target: Delta-type opioid receptor (Mus musculus, UniProt P32300); experiment: Binding assay evaluated using […] radioligand in CHO cells transfected with mouse Opioid receptor delta 1; format: cell-based
Sequence of Delta-type opioid receptor (P32300 whole entry): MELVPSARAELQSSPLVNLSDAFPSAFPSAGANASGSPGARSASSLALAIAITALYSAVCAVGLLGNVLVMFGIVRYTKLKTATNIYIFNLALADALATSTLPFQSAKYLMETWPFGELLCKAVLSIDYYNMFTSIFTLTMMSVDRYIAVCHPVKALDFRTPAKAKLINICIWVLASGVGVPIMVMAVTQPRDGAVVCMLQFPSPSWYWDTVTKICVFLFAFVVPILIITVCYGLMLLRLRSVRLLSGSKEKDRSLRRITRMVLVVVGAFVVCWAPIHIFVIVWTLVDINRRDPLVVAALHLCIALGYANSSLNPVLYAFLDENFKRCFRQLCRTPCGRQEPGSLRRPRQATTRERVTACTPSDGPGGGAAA

Sequence of Mu-type opioid receptor (P33535 whole entry): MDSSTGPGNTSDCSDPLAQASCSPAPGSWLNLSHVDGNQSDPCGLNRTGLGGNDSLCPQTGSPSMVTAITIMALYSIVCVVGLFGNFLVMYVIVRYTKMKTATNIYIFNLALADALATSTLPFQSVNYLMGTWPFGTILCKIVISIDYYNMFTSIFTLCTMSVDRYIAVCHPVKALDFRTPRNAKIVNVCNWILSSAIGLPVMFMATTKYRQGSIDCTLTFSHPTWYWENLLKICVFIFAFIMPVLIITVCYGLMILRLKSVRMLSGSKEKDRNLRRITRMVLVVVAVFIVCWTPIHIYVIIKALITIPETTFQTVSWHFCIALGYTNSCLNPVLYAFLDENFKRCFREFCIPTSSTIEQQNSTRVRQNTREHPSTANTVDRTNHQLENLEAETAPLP

Compound | pIC50 (Mu-type opioid receptor) | pIC50 [1]
N[C@@H](Cc1ccc(O)cc1)C(=O)N1Cc2ccccc2C[C@H]1C(=O)N[C@@H](Cc1ccccc1)C(=O)N[C@@H](Cc1ccccc1)C(=O)O (H-Y[Tic]FF-OH) | 4.64 | 8.24
Nc1ccc(C[C@H](NC(=O)[C@@H]2Cc3ccccc3CN2C(=O)[C@@H](N)Cc2ccc(O)cc2)C(=O)N[C@@H](Cc2ccccc2)C(=O)O)cc1 (H-Y[Tic][Phe(4-NH2)]F-OH) | < 5.00 | 7.06
Nc1ccc(C[C@H](NC(=O)[C@H](Cc2ccccc2)NC(=O)[C@@H]2Cc3ccccc3CN2C(=O)[C@@H](N)Cc2ccc(O)cc2)C(=O)O)cc1 (H-Y[Tic]F[Phe(4-NH2)]-OH) | < 5.00 | 7.93
N[C@@H](Cc1ccc(O)cc1)C(=O)N1Cc2ccccc2C[C@H]1C(=O)N[C@@H](Cc1ccccc1)C(=O)N[C@@H](Cc1ccc(N=C=S)cc1)C(=O)O | < 5.00 | 8.27
N[C@@H](Cc1ccc(O)cc1)C(=O)N1Cc2ccccc2C[C@H]1C(=O)N[C@@H](Cc1ccc(N=C=S)cc1)C(=O)N[C@@H](Cc1ccccc1)C(=O)O | < 5.00 | 7.91
